Target: Human immunodeficiency virus type 1 protease (Human immunodeficiency virus 1, UniProt Q72874)
Test: Compound was evaluated for in vitro inhibition of human immunodeficiency virus type 1 (HIV-1) Protease

Ki [nM] | SMILES
0.1 | CCC(c1cccc(NS(=O)(=O)c2ccc(C#N)cn2)c1)C1C(=O)CC(CC)(c2cccc(NS(=O)(=O)c3ccc(C#N)cn3)c2)OC1=O (configuration not stated) [2N-[3-(1-{2-[3-(5-cyano-2-pyridylsulfonamido)phenyl]-2-ethyl-4-hydroxy-6-oxo-3,6-dihydro-2H-5-pyranyl}propyl)phenyl]-5-cyano-2-pyridinesulfonamide]
0.1 | CCCC1(CCc2ccccc2)CC(=O)C(C(CC)c2cccc(NS(=O)(=O)c3ccc(C#N)cn3)c2)C(=O)O1 (configuration not stated) [5-cyano-N-(3-{1-[4-hydroxy-2-oxo-6-(2-phenylethyl)-6-propyl-5,6-dihydro-2H-pyran-3-yl]propyl}phenyl)pyridine-2-sulfonamide]

Reference: BindingDB's records for doi:10.1016/s0960-894x(98)00197-8 (Pharmacia & Upjohn, 1999)
